Test results reported in patent US20030143165A1, “NSAID-containing topical formulations that demonstrate chemopreventive activity” (priority 2002, published 2003).

Columns and labels:
cyclooxygenase (COX) = details: cited from earlier work
[1] = tested on: non-pigmented human skin cancer cell line MM96L; assay: in vitro proliferation (MTS colorimetric assay) and apoptosis of human skin cancer cell line; assay type: cell-based; details: for effect on proliferation rate (FIG. 4): 24 hours exposure, MTS assay; for apoptosis: DNA fragmentation, acridine orange staining, flow cytometry
Source text: FIG. 4 is a chart that graphically presents laboratory experiment test data regarding the relative effect of racemic flurbiprofen to its individual enantiomers, R-flurbiprofen flurbiprofen (“R-FB”) and S-flurbipofen (“S-FB”), on the in vitro proliferation of a cancerous human skin cell line. For the underlying experiment, the non-pigmented human skin cancer cell line M[…] was studied in vitro utilizing the MTS colorimetric assay to assess cell proliferation. DNA fragmentation assays, acridine orange staining and flow cytometry were also utilized to assess apoptosis and cell cycle effects. […] An important finding was that there was no difference between the enantiomers of flurbiprofen in their anti-proliferative potency, despite the fact that only the S-isomer was capable of reducing COX activity.

[2] = tested on: SKH-1 mice (hairless mice); assay: UV light-induced skin carcinogenesis (papillomas/tumours) in hairless mice, topical treatment for 28 weeks; assay type: in vivo; details: for animals that had developed at least one tumour at the end of the study: week 28
Experimental: In a first laboratory experiment performed, female SKH-1 mice (hairless mice) were purchased from the Animal Resource Service of Murdoch University, Western Australia, at approximately 3-4 weeks of age. Upon arrival at the Applicants' laboratory, the mice were housed in climate-controlled quarters (22±1° C. at 50% humidity) with a 12-hour light/dark cycle in yellow fluorescent lighting. All animals were allowed free access to rodent diet and water. The experimental protocol and all procedures were approved by CSIRO Health Sciences and Nutrition Animal Experimental Ethics Committee and followed the Australian Code of Practice for the care and use of animals for scientific purposes. The animals were observed daily during the period of UV light exposure. Individual body weights were determined twice weekly throughout the whole study period of 28 weeks.
Racemic flurbiprofen (“RS-FB”), used as the chemopreventive NSAID in this experiment, was purchased from Sigma Chemical Company (Sydney, Australia). Several topical formulation solutions were prepared by dissolving RS-FB in 70% ethanol (in water) as the carrier medium to achieve final RS-FB concentrations of 0.5, 1.0, 2.0 and 3.0% w/v. The drug solutions were prepared every two weeks throughout the whole study period.
The SKH-1 mice were divided into 5 treatment groups of 30 animals each. […] Within each treatment group, the animals were further divided into 2 subgroups of 15 animals. One subgroup was treated with vehicle or RS-FB solution one hour before the UV light exposure. The other subgroup was exposed to the UV light one hour before the application of vehicle or the allocated RS-FB solution. The solutions were applied topically to the dorsal area of the animals, in a volume of approximately 50-125 μl per application, using cotton tips.
Simulated solar irradiation was provided by an array of 6 UV-A tubes (Sylvania F40BL) symmetrically housed around a single UV-B tube (Philips FL 40SE) in a custom-built unit. As the skin of the animals progressively thickened, the time of exposure to reach 1 minimal erythematous dose (MED) was increased from 7 minutes per day to 10 minutes per day, 5 days a week. The integrated UV-B irradiance (280-320 nm) was 2.4×10^−4 W/cm^2, and the UV-A (320-400 nm) was 1.8×10^−3 W/cm^2 as measured with a model IL 1700 spectro-radiometer (International Light, Newburyport, Mass.). During treatment, the mice in each group were placed in separate open plastic cages in the UV housing unit. […] Treatment in this manner was continued for 28 weeks.
The development of skin cancer was assessed as the visible appearance of papillomas, which subsequently developed, in a subset of cases, to tumours. Weekly papilloma and tumour counts were performed after the appearance of the first papilloma and were continued until the termination of the experiment (week 28). The diameters of papillomas and tumours were measured and their locations noted. Data was recorded representing the number of (a) papillomas, (b) tumours and (c) papillomas plus tumours per animal. While the natural progression is from papilloma to tumour, it will be appreciated by those skilled in the art that, in some cases, the distinction between a papilloma and a tumour could not be made unequivocally. The data was analysed taking this into account. The appearance of the skin lesions was expressed progressively as incidence (percentage of mice bearing at least one papilloma/tumour) and yield (average number of papillomas/tumours per mouse) as well as burden (area of skin affected at the end of study).
Analysis of variance (ANOVA) was used to determine whether RS-FB administration caused a statistically significant change in the appearance and yield of papilloma/tumours in comparison with the control (vehicle group). Comparisons between groups was performed using the Scheffe method. Significance was concluded when P<0.05.

human skin cells = assay: anti-proliferative effects of other NSAIDs on human skin cells; assay type: cell-based; details: range depends on duration of exposure, read-out: IC50 (concentration required to inhibit cell proliferation by 50%)
Source text: FIG. 4 is a chart that graphically presents laboratory experiment test data regarding the relative effect of racemic flurbiprofen to its individual enantiomers, R-flurbiprofen flurbiprofen (“R-FB”) and S-flurbipofen (“S-FB”), on the in vitro proliferation of a cancerous human skin cell line. For the underlying experiment, the non-pigmented human skin cancer cell line MM96L was studied in vitro utilizing the MTS colorimetric assay to assess cell proliferation. DNA fragmentation assays, acridine orange staining and flow cytometry were also utilized to assess apoptosis and cell cycle effects. […] An important finding was that there was no difference between the enantiomers of flurbiprofen in their anti-proliferative potency, despite the fact that only the S-isomer was capable of reducing COX activity.
Further experiments similar to that discussed above with respect to FIG. 4 were conducted to assess the anti-proliferative effects of other NSAIDs on human skin cells. […] These values are similar to the IC50 vales encountered for flurbiprofen.

C[C@@H](C(=O)O)c1ccc(-c2ccccc2)c(F)c1 [R-FB, R-flurbiprofen]
COX inhibitory activity (cyclooxygenase (COX)): low COX inhibition | difference between the enantiomers in anti-proliferative potency [1]: no difference | effect on proliferation rate (FIG. 4) [1]: inhibit the proliferation rate | apoptosis [1]: induce apoptosis

CC(C(=O)O)c1ccc(-c2ccccc2)c(F)c1 (racemic) [racemic flurbiprofen, flurbiprofen]
effect on proliferation rate (FIG. 4) [1]: inhibit the proliferation rate | apoptosis [1]: induce apoptosis | DP50 (time for 50% of mice within the group to develop at least one papilloma) ([2]; 0.5% w/v topical in 70% ethanol, UV 5 days a week): 17 weeks | animals that had developed at least one tumour at the end of the study ([2]; 0.5% w/v topical): 45% | skin appearance at completion of week 28 (FIG. 3c, 3d) vs vehicle animal ([2]; 1% and 2% treatment groups, representative animals): reduction in tumours and ulcers | DP50 (time for 50% of mice within the group to develop at least one papilloma) ([2]; 1% w/v topical in 70% ethanol, UV 5 days a week): 17 weeks | animals that had developed at least one tumour at the end of the study ([2]; 1.0% w/v topical): 25% | DP50 (time for 50% of mice within the group to develop at least one papilloma) ([2]; 2% w/v topical in 70% ethanol, UV 5 days a week): 17.5 weeks | animals that had developed at least one tumour at the end of the study ([2]; 2.0% w/v topical): 25% | adverse effects in the animals ([2]; 3% w/v topical, initial treatment (until week 10)): adverse effects (such as lethargy, dehydration, and diarrhoea) | DP50 (time for 50% of mice within the group to develop at least one papilloma) ([2]; 3-2% w/v topical (3%, then 2% from week 10)): 18.5 weeks | animals that had developed at least one tumour at the end of the study ([2]; 3-2% w/v topical): 10% | adverse effects / pathology in the animals ([2]; all concentrations up to and including 2% topical, 28 weeks): no signs of adverse effects | papilloma/tumour yield (average number per animal) vs control over time (FIG. 1) ([2]; all treatment groups 0.5-3-2% w/v, ANOVA/Scheffe): statistically significant from week 13 | reduction in the number of animals that developed skin tumours compared with control group ([2]; highest concentration (3-2% w/v) vs vehicle control): greater than 80% | protection against photo-carcinogenesis, application one hour before vs one hour after UV light ([2]; papilloma/tumour incidence compared between the two subgroups): superior protection

CC(C)Cc1ccc([C@H](C)C(=O)O)cc1 [S-ibuprofen]
IC50 (human skin cells): 1.5 mM

CC(C)Cc1ccc([C@@H](C)C(=O)O)cc1 [R-ibuprofen]
IC50 (human skin cells): 1.49 mM

CC1=C(CC(=O)O)c2cc(F)ccc2/C1=C\c1ccc([S+](C)[O-])cc1 (stereo not shown) [sulindac]
IC50 (human skin cells): 1.03 to 2.16 mM

C[C@H](C(=O)O)c1ccc(-c2ccccc2)c(F)c1 [S-FB, S-flurbiprofen]
COX inhibitory activity (cyclooxygenase (COX)): can inhibit cyclooxygenase | difference between the enantiomers in anti-proliferative potency [1]: no difference | effect on proliferation rate (FIG. 4) [1]: inhibit the proliferation rate | apoptosis [1]: induce apoptosis

CC(=O)Oc1ccccc1C(=O)O [aspirin]
IC50 (human skin cells): 0.97 to 5.53 mM
